# Test results: ChEMBL document CHEMBL1132524, “Synthesis and evaluation of analogs of Efavirenz (SUSTIVA) as HIV-1 reverse transcriptase inhibitors” (Bioorg Med Chem Lett, 1999)
# Tests used:
# [1] = system: Human immunodeficiency virus 1
# [2] = biological target: Human immunodeficiency virus type 1 reverse transcriptase (Human immunodeficiency virus 1, UniProt Q72547); test: Inhibitory activity against HIV-1 reverse transcriptase enzyme
SMILES,IC90 [1] [nM],IC50 [2] [nM]
Cc1ccc2c(c1)C(C#CC1CC1)(C(F)(F)F)OC(=O)N2 (stereo not given),7.11,133
COc1ccc2c(c1)C(C#CC1CC1)(C(F)(F)F)OC(=O)N2 (stereo not given),2,131
O=C1Nc2ccc(F)cc2C(C#CC2CC2)(C(F)(F)F)O1 (stereo not given),7.35,190
CN(C)c1ccc2c(c1)C(C#CC1CC1)(C(F)(F)F)OC(=O)N2 (stereo not given),8.33,816
O=C1Nc2c(F)ccc(F)c2C(C#CC2CC2)(C(F)(F)F)O1 (stereo not given),18,796
O=C1Nc2cc3ccccc3cc2C(C#CC2CC2)(C(F)(F)F)O1 (stereo not given),26.9,1910
O=C1Nc2c(F)cc(F)c(F)c2C(C#CC2CC2)(C(F)(F)F)O1 (stereo not given),14,800
O=C1Nc2c(cc(F)c(F)c2F)C(C#CC2CC2)(C(F)(F)F)O1 (stereo not given),418,> 2000
O=C1Nc2ccc(OC(F)(F)F)cc2C(C#CC2CC2)(C(F)(F)F)O1 (stereo not given),18.9,1250
O=C1Nc2c(Cl)cc(Cl)cc2C(C#CC2CC2)(C(F)(F)F)O1 (stereo not given),28.6,> 2000
O=C1Nc2c(F)cc(Cl)cc2C(C#CC2CC2)(C(F)(F)F)O1 (stereo not given),7.19,
CC(C)c1ccc2c(c1)C(C#CC1CC1)(C(F)(F)F)OC(=O)N2 (stereo not given),27.8,1960
O=C1Nc2ccccc2C(C#CC2CC2)(C(F)(F)F)O1 (stereo not given),10.3,478
O=C1Nc2ccc(-c3ccccc3)cc2C(C#CC2CC2)(C(F)(F)F)O1 (stereo not given),249,> 2000
O=C1Nc2ccc(F)c(F)c2C(C#CC2CC2)(C(F)(F)F)O1 (stereo not given),,84
O=C1Nc2cc(F)c(F)c(F)c2C(C#CC2CC2)(C(F)(F)F)O1 (stereo not given),19.6,442
